In this data set the test system is HeLa cells. Kind of data set: Cell viability assay (Cell-Titer-Glo) of emulsions, one hour. Format: cell-based. How it is done:
HeLa cells (obtained from American Type Culture Collection) were maintained in Dulbecco's Modified Eagle's Medium (Gibco) supplemented with 10% fetal bovine serum (Invitrogen) at 37° C. in a humidified 5% CO2 atmosphere. For viability assays testing biocompatibility of the emulsions, cells were plated in a 96-well white opaque plate format at 40,000 cells per well, allowed to seed overnight, and then treated with emulsions at indicated concentrations for one hour. These viability assays utilized the Cell-Titer-Glo 2.0 reagent (Promega, G9243) according to the manufacturer's instructions. Briefly, 100 μL of Cell-Titer-Glo 2.0 reagent, diluted at 1:1 with culture media, was added to each well containing 100 μl emultion-particles-containing media. Plates were gently agitated for 2 minutes and incubated at room temperature for 10 minutes in the dark to promote adequate mixing. Luminescence was subsequently measured using a Victor 5 plate reader (Perkin Elmer). The intensity of luminescence was normalized to that of cells with no emulsion particles added.

Results on 2 substances are retold here after patent US20240110150A1, “PHOTON UPCONVERSION BIOMATERIALS, MICELLE AND NANOPARTICLES FOR THREE-DIMENSIONAL (3D) OPTOGENETICS” (THE TRUESTEES OF COLUMBIA UNIVERSITY IN THE CITY OF NEW YORK, priority 2020, published 2024).

As for Pluronic F127, the “biocompatibility of emulsion surfactants” value was “biocompatible and nontoxic to the cells”.
For Tween 80, the “biocompatibility of emulsion surfactants” value was “only Pluronic F127 was found to be biocompatible and nontoxic”.
